Earlier results in patent US20260198506A1, “Broad-Spectrum Organic Fungicide & Bactericide” (Ecolution.AG LLC, priority 2020, published 2026).

Tested on: Gram-positive bacteria
Conditions: due to outer cell membrane impermeability of Gram-negatives

O=C(O)C1=C[C@@H](O)[C@@H](O)[C@H](O)C1 [shikimic acid]
antibacterial activity spectrum: active only against Gram-positive bacteria
